According to ChEMBL document CHEMBL1201862, “PubChem BioAssay data set” (2004):
Calls of active or inactive are those of the source.

Legend:
[1] = biological target: T1, Sentrin-specific protease 6 (Homo sapiens, UniProt Q9GZR1); assay: SAR Analysis of small molecule inhibitors of Sentrin-specific protease 6 (SENP6) using a Luminescent assay. [Related pubchem assays (depositor defined):AID2582, AID2599]; assay type: functional
T1 sequence (Q9GZR1 whole entry): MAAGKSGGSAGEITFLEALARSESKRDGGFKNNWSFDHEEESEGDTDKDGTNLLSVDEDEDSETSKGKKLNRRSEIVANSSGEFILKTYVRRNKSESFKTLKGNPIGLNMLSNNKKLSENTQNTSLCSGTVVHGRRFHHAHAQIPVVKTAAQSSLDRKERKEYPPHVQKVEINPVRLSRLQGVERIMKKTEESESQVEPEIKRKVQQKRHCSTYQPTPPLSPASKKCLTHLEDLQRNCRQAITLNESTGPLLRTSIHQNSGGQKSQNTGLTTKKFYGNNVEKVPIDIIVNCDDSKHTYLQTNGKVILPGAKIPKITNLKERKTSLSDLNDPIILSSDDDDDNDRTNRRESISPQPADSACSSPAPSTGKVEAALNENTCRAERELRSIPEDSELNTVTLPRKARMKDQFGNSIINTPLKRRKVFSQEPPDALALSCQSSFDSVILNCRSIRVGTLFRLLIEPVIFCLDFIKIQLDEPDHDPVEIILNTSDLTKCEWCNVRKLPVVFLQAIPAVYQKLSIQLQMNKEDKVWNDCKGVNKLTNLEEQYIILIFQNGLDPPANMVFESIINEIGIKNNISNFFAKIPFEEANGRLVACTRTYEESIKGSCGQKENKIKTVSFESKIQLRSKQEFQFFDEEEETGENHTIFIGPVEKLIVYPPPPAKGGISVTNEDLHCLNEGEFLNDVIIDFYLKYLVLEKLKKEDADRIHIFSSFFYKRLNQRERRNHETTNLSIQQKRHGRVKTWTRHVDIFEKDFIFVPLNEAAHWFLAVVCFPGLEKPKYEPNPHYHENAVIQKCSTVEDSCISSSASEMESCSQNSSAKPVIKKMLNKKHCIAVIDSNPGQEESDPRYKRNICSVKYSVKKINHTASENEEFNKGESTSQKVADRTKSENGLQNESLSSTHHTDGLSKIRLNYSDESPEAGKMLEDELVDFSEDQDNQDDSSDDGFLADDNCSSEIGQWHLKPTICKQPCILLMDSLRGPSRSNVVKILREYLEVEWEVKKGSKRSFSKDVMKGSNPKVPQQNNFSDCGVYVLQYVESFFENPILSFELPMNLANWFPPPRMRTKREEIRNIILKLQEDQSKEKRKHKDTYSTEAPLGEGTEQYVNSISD

[2] = biological target: T2, Sentrin-specific protease 8 (Homo sapiens, UniProt Q96LD8); assay: SENP8 protease inhibitors, SAR follow-up, biochemical, luminescence, set 2 (AID 588601); assay type: functional
T2 sequence (Q96LD8 whole entry): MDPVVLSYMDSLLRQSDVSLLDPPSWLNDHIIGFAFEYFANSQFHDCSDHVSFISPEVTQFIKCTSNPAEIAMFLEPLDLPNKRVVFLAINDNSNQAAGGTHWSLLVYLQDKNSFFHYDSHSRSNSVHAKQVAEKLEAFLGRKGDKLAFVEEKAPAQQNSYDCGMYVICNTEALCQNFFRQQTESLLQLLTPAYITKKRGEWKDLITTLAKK

[3] = biological target: T3, Sentrin-specific protease 7 (Homo sapiens, UniProt Q9BQF6); assay: SENP7 protease inhibitors, SAR follow-up, biochemical, luminescence, set 2 (AID 588600); assay type: functional
T3 sequence (Q9BQF6 whole entry): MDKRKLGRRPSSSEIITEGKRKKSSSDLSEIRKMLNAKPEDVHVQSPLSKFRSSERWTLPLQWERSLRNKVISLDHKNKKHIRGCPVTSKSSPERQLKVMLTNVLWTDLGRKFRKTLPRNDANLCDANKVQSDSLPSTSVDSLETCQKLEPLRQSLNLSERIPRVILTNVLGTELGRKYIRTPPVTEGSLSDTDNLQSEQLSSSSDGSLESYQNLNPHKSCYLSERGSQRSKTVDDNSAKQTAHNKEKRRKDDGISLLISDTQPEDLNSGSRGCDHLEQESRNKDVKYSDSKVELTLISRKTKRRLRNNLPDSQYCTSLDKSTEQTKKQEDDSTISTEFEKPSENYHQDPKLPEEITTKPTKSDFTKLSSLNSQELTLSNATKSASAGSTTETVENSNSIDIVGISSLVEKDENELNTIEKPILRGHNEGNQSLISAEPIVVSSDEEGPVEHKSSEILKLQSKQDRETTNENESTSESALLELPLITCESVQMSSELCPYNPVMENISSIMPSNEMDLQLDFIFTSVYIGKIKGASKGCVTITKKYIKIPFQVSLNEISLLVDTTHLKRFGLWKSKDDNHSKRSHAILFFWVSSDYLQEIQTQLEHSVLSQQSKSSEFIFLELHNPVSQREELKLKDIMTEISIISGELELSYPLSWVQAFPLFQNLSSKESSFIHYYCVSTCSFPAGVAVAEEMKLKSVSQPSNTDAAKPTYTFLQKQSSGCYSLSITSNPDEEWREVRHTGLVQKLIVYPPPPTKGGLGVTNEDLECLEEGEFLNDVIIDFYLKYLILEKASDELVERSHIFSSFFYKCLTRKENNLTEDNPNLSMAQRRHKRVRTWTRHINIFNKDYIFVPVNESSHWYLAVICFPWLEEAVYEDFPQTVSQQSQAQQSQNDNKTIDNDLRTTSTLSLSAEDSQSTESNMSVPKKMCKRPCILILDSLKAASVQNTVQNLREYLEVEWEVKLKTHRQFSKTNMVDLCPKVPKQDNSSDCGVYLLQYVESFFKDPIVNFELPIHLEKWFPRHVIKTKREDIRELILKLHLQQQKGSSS

[4] = biological target: T3, Sentrin-specific protease 7; assay: SENP7 protease inhibitors, SAR follow-up, biochemical, luminescence (AID 504497); assay type: functional
Caspase-3 [5] = biological target: T4, Caspase-3 (Homo sapiens, UniProt P42574); assay: caspase-3 inhibitors as off-family protease, SAR follow-up, selectivity assay for SENP protease inhibitor project, biochemical, luminescence, set 2 (AID 588599); assay type: functional
T4 sequence (P42574 whole entry): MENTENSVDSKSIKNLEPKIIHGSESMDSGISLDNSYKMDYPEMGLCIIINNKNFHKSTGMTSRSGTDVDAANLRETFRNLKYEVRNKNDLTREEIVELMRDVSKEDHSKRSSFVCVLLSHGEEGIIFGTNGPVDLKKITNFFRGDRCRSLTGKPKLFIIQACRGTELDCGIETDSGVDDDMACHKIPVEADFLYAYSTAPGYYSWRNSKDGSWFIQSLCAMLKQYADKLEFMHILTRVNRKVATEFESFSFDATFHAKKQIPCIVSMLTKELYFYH

[6] = biological target: T2, Sentrin-specific protease 8; assay: SENP8 protease inhibitors, SAR follow-up, biochemical, luminescence (AID 504501); assay type: functional
Caspase-3 [7] = biological target: T4, Caspase-3; assay: SAR Analysis of small molecule inhibitors of Sentrin-specific proteases (SENPs) using a Caspase-3 Selectivity assay. [Related pubchem assays (depositor defined):AID2540, AID2599, AID434973, AID489001]; assay type: functional
[8] = biological target: T1, Sentrin-specific protease 6; assay: SENP6 protease inhibitors, SAR follow-up, biochemical, luminescence, set 2 (AID 588598); assay type: functional
[9] = biological target: T5, Endoribonuclease toxin MazF (Escherichia coli K-12, UniProt P0AE70); assay: MazF endoribonuclease activators, SAR follow-up, biochemical, fluorescence, single-stranded RNA substrate (AID 588603); assay type: functional
T5 sequence (P0AE70 whole entry): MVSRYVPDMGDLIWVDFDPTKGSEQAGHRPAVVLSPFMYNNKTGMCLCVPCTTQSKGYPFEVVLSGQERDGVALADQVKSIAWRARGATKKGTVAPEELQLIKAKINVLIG

MEF = assay: SAR analysis of small molecule cytotoxicity of MazEF TA System activators in embryonic fibroblast (MEF) cells. [Related pubchem assays (depositor defined):AID504720, AID504743]; assay type: functional; settings: Mus musculus
[10] = biological target: T5, Endoribonuclease toxin MazF; assay: MazF toxin RNase activators, dose response, biochemical, fluorescence, single-stranded RNA substrate, uHTS hits (AID 588481); assay type: functional
[11] = biological target: T5, Endoribonuclease toxin MazF; assay: fluorescent RNA oligo signal without MazF, dose response, counter-screen for MazEF activator project, biochemical, fluorescence, single-stranded RNase substrate (AID 588502); assay type: functional
[12] = biological target: T5, Endoribonuclease toxin MazF; assay: SAR analysis of small molecule activators of the MazEF TA System via a fluorescence-based single-stranded RNase assay counterscreen. [Related pubchem assays (depositor defined):AID504720, AID504743]; assay type: functional
Phospholipase D1 = Phospholipase D1 (Homo sapiens, UniProt Q13393); assay: PLD1 inhibitor potency in cells, dose response (AID 602151); assay type: functional;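 also: cellular PLD1 assay in Calu-1 cells stimulated with PMA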
Chain of Phospholipase D1 (Q13393 whole entry): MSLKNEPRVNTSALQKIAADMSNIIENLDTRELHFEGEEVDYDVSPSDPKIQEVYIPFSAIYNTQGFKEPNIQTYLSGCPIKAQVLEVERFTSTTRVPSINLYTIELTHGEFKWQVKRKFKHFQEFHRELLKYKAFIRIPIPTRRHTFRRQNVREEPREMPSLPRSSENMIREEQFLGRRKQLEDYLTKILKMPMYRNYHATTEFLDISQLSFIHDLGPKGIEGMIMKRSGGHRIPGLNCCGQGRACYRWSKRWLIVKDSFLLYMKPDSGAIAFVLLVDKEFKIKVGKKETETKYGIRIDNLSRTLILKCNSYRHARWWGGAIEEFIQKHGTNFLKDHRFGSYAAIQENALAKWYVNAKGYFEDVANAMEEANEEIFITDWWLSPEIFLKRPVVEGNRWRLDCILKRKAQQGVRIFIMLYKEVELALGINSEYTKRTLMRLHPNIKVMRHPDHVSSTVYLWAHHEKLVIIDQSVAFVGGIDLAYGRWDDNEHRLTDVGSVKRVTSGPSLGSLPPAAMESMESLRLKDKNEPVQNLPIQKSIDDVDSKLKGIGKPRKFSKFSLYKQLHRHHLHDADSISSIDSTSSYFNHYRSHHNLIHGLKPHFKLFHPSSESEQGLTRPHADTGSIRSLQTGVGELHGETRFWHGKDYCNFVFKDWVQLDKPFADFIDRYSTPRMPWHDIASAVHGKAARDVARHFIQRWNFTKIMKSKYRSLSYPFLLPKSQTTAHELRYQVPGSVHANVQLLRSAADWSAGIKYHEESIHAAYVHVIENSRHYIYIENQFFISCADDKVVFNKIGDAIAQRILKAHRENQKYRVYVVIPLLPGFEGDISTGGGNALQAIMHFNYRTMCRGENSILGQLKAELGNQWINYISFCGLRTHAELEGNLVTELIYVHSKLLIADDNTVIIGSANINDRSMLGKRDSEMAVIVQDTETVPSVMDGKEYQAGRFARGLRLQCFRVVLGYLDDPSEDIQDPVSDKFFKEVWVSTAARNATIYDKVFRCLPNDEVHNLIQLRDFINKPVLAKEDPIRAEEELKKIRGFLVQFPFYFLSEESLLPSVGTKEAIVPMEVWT

Phospholipase D2 = Phospholipase D2 (Homo sapiens, UniProt O14939); assay: PLD2 inhibitor potency in cells, dose response (AID 602147); assay type: functional;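 also: cellular assay in HEK293 cells overexpressing GFP-tagged PLD2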
Chain of Phospholipase D2 (O14939 whole entry): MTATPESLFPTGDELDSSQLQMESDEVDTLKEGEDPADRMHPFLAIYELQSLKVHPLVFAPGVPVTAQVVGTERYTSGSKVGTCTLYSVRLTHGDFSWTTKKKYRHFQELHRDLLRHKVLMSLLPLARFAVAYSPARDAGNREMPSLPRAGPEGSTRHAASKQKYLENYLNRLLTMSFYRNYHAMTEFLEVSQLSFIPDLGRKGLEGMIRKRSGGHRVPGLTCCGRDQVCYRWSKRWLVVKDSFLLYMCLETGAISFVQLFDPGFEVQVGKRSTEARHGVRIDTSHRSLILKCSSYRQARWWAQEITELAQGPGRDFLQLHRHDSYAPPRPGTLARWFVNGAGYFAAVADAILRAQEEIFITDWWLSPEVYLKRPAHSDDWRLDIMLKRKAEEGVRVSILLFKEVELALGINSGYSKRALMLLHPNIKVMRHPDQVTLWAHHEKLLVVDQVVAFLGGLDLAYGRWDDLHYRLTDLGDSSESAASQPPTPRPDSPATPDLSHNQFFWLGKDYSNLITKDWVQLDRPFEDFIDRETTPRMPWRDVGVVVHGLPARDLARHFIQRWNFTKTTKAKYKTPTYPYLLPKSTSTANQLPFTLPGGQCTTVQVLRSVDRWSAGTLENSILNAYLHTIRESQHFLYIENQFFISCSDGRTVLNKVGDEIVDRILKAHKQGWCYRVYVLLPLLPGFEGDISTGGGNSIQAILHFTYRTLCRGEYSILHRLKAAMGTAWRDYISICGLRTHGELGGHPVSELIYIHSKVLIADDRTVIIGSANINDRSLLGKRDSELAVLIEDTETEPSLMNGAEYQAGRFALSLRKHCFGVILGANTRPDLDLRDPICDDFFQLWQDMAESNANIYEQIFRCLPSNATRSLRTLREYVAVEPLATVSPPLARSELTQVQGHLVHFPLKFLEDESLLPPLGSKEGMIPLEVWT

SN12K1 = assay: cells; assay type: functional; settings: Homo sapiens, SN12K1
P388 = assay: cells; assay type: functional; settings: Mus musculus, P388
P388/ADR = assay: cells; assay type: functional; settings: Mus musculus, P388/ADR
[13] = ADP-Glo luciferase interference without Dyrk1A, dose response, artefact control for Dyrk1A inhibitor project, biochemical, luminescence, cherry-pick, set 02 (AID 588348)
[14] = biological target: FAD-linked sulfhydryl oxidase ALR (Homo sapiens, UniProt P55789); assay: inhibitors of human ALR sulfhydryl oxidase, dose response, biochemical, H2O2 detection, luminescence, cherry-pick (AID 493248)
Chain of FAD-linked sulfhydryl oxidase ALR (P55789 whole entry): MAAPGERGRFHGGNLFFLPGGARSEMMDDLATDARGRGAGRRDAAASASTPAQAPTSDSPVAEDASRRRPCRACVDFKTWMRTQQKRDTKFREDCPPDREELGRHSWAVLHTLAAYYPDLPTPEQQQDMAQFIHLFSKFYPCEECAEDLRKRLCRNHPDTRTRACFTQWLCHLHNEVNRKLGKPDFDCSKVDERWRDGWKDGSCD

[15] = biological target: Dual specificity tyrosine-phosphorylation-regulated kinase 1A (Rattus norvegicus, UniProt Q63470); assay type: biochemical, Homo sapiens
Large T antigen = Large T antigen (Simian virus 40, UniProt P03070); assay type: functional, Betapolyomavirus macacae;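 also: Confirmatory-stage PubChem screen for compounds that inhibit SV40 T antigen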
Chain of Large T antigen (P03070 whole entry): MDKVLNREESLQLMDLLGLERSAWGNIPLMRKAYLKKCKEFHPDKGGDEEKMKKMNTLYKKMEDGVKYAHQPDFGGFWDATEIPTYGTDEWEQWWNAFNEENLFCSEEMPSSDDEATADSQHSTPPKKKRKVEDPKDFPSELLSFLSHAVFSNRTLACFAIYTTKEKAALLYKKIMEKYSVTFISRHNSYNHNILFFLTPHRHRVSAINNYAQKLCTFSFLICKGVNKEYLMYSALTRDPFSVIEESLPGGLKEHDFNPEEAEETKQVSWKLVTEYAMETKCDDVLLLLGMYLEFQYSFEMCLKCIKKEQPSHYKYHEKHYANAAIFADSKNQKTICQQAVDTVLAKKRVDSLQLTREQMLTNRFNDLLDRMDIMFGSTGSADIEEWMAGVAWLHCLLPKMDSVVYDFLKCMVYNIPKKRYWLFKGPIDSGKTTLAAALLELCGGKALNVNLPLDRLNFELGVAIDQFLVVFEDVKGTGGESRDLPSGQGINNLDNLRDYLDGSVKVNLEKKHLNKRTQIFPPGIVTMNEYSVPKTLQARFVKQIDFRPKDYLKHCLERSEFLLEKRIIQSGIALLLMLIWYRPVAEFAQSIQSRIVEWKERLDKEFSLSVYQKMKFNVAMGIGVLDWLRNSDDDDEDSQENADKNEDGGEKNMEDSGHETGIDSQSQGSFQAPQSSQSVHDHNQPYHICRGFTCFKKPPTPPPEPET

## O=C(Nc1nc2ccc(Cl)cc2s1)c1ccco1
[1]
  IC50: 1.4 µM (active)
[2]
  IC50: 1.08 µM (active)
[3]
  IC50: 1.23 µM (active)
[4]
  IC50: 1 µM (active)
Caspase-3 [5]
  IC50: 1.42 µM (active)
[6]
  IC50: 1.7 µM (active)
Caspase-3 [7]
  IC50: 1.5 µM (active)
[8]
  IC50: 1.16 µM (active)

## Cc1ccc(CNC(=O)c2ccc(CNS(=O)(=O)c3ccc4c(c3)C(C)(C)C(=O)N4C)cc2)o1
[9]
  EC50: 9.72 µM (active)
MEF
  CC50: > 99 µM (inactive)
[10]
  EC50: 9.43 µM (active)
[11]
  EC50: > 99 µM (inactive)
[12]
  EC50: > 99 µM (inactive)

## C[C@@H](CN1CCC(n2c(=O)[nH]c3ccccc32)CC1)NC(=O)c1ccc(C(F)(F)F)cc1
Phospholipase D1
  IC50: 0.121 µM (active)
Phospholipase D2
  IC50: 20 µM (active)

## Oc1cc(O)cc(/C=C/c2ccc(O)c(O)c2)c1 [PICEATANNOL]
SN12K1
  GI50: 3.94 µM (inactive)
P388
  GI50: 5.48 µM (inactive)
[10]
  EC50: > 99 µM (inactive)
[11]
  EC50: > 99 µM (inactive)
P388/ADR
  GI50: 7.76 µM (inactive)
[13]
  AC50: 27.7 µM (active)
[14]
  AC50: 0.689 µM (active)
[15]
  AC50: 7.53 µM (active)
Large T antigen
  IC50: 16.4 µM (active)
